What is called pIC50 is the negative decadic logarithm of the IC50, by convention in mol/L.

The results in this text go back to US8546414B2, “Ion channel modulators and methods of use” (Vertex Pharmaceuticals Incorporated, priority 2004, dated 2013).

One experiment addresses T1, CaV2.2 (Homo sapiens, UniProt Q00975).
T1 construct: expressed in transfected cells; host or cells: HEK293
Nature of the experiment: VIPR optical membrane potential assay with electrical stimulation, CaV2.2. It counts as cell-based. The following applies: Table 9, CaV 2.2 receptors. The procedure: A. Optical Methods for Assaying CaV Inhibition Properties of Compounds:
(§1) Antagonist properties of test compounds were assessed as follows. Cells expressing the CaV of interest were placed into microtiter plates. After an incubation period, the cells were stained with fluorescent dyes sensitive to the transmembrane potential. The test compounds were added to the microtiter plate. The cells were stimulated with electrical means to evoke a CaV dependent membrane potential change from unblocked channels, which was detected and measured with trans-membrane potential-sensitive dyes. Antagonists were detected as a decreased membrane potential response to the stimulus.
(§2) VIPR® Optical Membrane Potential Assay Method with Electrical Stimulation
The following is an example of how CaV2.2 inhibition activity is measured using the optical membrane potential method. Other subtypes are performed in an analogous mode in a cell line expressing the CaV of interest.
HEK293 cells stably expressing CaV2.2 are plated into 96-well microtiter plates. After an appropriate incubation period, the cells are stained with the voltage sensitive dyes CC2-DMPE/DiSBAC2(3) as follows.
2X CC2-DMPE=20 μM CC2-DMPE: 10 mM CC2-DMPE is vortexed with an equivalent volume of 10% Pluronic, followed by vortexing in required amount of HBSS containing 10 mM HEPES. Each cell plate will require 5 mL of 2×CC2-DMPE. 50 μL of 2×CC2-DMPE is added to wells containing washed cells, resulting in a 10 μM final staining concentration. The cells are stained for 30 minutes in the dark at RT.
Vortex in required amount of Bath X with beta-cyclodextrin. Each 96 well cell plate will require 5 ml of 2XCC2DMPE. Wash plate with ELx405 with Bath X, leaving a residual volume of 50 μL/well. Add 50 μL of 2XCC2DMPE & […] to each well. Stain for 30 minutes in the dark at RT.
Allow solution to sit for 10 minutes. Slowly mix in 370 mM BaCl2. This solution can be used to solvate compound plates. Note that compound plates are made at 1.5× drug concentration and not the usual 2X. Wash CC2 stained plate, again, leaving residual volume of 50 μL. Add 100 uL/well of the AY17 solution. Stain for 15 minutes in the dark at RT. Run plate on the optical reader.
(§3) The instrument comprises a microtiter plate handler, an optical system for exciting the coumarin dye while simultaneously recording the coumarin and oxonol emissions, a waveform generator, a current- or voltage-controlled amplifier, and a device for inserting electrodes in well. Under integrated computer control, this instrument passes user-programmed electrical stimulus protocols to cells within the wells of the microtiter plate.
Insert or use electrodes into each well to be assayed.
Use the current-controlled amplifier to deliver stimulation wave pulses for 3-5 s. Two seconds of pre-stimulus recording are performed to obtain the un-stimulated intensities. Five seconds of post-stimulation recording are performed to examine the relaxation to the resting state.
(§4) Data are analyzed and reported as normalized ratios of background-subtracted emission intensities measured in the 460 nm and 580 nm channels. Background intensities are then subtracted from each assay channel. Background intensities are obtained by measuring the emission intensities during the same time periods from identically treated assay wells in which there are no cells. The response as a function of time is then reported as the ratios obtained using the following formula: […]
(§5) The data is further reduced by calculating the initial (Ri) and final (Rf) ratios. These are the average ratio values during part or all of the pre-stimulation period, and during sample points during the stimulation period. The response to the stimulus R=Rf/Ri is then calculated.
Control responses are obtained by performing assays in the presence of a compound with the desired properties (positive control), such as mibefradil, and in the absence of pharmacological agents (negative control).

The target in a further experiment is T2, NaV1.3 (Homo sapiens, UniProt Q9NY46).
T2 construct: expressed in transfected cells; host or cells: HEK293
Nature of the experiment: VIPR optical membrane potential assay with electrical stimulation, NaV1.3. It counts as cell-based. The following applies: Table 9, NaV 1.3 receptors. The protocol: as §1, with “expressing the NaV of interest” for “expressing the CaV of interest”, “stimulated with either chemical or electrical means” for “stimulated with electrical means”, “evoke a NaV dependent membrane” for “evoke a CaV dependent membrane”
as §2
The following is an example of how NaV1.3 inhibition activity is measured using the optical membrane potential method#2. Other subtypes are performed in an analogous mode in a cell line expressing the NaV of interest.
HEK293 cells stably expressing NaV1.3 are plated into 96-well microtiter plates. After an appropriate incubation period, the cells are stained with the voltage sensitive dyes CC2-DMPE/DiSBAC2(3) as follows.
2X CC2-DMPE=20 μM CC2-DMPE: 10 mM CC2-DMPE is vortexed with an equivalent volume of 10% pluronic, followed by vortexing in required amount of HBSS containing 10 mM HEPES. Each cell plate will require 5 mL of 2×CC2-DMPE. 50 μL of 2×CC2-DMPE is added to wells containing washed cells, resulting in a 10 μM final staining concentration. The cells are stained for 30 minutes in the dark at RT.
2X DISBAC2(3) with ABSC1=6 μM DISBAC2(3) and 1 mM ABSC1: The required amount of 10 mM DISBAC2(3) is added to a 50 ml conical tube and mixed with 1 μL 10% pluronic for each mL of solution to be made and vortexed together. Then HBSS/HEPES is added to make up 2× solution. Finally, the ABSC1 is added.
The 2X DiSBAC2(3) solution can be used to solvate compound plates. Note that compound plates are made at 2× drug concentration. Wash stained plate again, leaving residual volume of 50 Add 50 μL/well of the 2X DiSBAC2(3) w/ABSC1. Stain for 30 minutes in the dark at RT.
as §3
• 1. Insert or use electrodes into each well to be assayed. • 2. Use the current-controlled amplifier to deliver stimulation wave pulses for 3 s. Two seconds of pre-stimulus recording are performed to obtain the un-stimulated intensities. Five seconds of post-stimulation recording are performed to examine the relaxation to the resting state. Data Analysis
as §4, §5
Control responses are obtained by performing assays in the presence of a compound with the desired properties (positive control), such as tetracaine, and in the absence of pharmacological agents (negative control). Responses to the negative (N) and positive (P) controls are calculated as above. The compound antagonist activity A is defined as: […]

pIC50: −log10 of the molar value.

T1 sequence (Q00975 whole entry): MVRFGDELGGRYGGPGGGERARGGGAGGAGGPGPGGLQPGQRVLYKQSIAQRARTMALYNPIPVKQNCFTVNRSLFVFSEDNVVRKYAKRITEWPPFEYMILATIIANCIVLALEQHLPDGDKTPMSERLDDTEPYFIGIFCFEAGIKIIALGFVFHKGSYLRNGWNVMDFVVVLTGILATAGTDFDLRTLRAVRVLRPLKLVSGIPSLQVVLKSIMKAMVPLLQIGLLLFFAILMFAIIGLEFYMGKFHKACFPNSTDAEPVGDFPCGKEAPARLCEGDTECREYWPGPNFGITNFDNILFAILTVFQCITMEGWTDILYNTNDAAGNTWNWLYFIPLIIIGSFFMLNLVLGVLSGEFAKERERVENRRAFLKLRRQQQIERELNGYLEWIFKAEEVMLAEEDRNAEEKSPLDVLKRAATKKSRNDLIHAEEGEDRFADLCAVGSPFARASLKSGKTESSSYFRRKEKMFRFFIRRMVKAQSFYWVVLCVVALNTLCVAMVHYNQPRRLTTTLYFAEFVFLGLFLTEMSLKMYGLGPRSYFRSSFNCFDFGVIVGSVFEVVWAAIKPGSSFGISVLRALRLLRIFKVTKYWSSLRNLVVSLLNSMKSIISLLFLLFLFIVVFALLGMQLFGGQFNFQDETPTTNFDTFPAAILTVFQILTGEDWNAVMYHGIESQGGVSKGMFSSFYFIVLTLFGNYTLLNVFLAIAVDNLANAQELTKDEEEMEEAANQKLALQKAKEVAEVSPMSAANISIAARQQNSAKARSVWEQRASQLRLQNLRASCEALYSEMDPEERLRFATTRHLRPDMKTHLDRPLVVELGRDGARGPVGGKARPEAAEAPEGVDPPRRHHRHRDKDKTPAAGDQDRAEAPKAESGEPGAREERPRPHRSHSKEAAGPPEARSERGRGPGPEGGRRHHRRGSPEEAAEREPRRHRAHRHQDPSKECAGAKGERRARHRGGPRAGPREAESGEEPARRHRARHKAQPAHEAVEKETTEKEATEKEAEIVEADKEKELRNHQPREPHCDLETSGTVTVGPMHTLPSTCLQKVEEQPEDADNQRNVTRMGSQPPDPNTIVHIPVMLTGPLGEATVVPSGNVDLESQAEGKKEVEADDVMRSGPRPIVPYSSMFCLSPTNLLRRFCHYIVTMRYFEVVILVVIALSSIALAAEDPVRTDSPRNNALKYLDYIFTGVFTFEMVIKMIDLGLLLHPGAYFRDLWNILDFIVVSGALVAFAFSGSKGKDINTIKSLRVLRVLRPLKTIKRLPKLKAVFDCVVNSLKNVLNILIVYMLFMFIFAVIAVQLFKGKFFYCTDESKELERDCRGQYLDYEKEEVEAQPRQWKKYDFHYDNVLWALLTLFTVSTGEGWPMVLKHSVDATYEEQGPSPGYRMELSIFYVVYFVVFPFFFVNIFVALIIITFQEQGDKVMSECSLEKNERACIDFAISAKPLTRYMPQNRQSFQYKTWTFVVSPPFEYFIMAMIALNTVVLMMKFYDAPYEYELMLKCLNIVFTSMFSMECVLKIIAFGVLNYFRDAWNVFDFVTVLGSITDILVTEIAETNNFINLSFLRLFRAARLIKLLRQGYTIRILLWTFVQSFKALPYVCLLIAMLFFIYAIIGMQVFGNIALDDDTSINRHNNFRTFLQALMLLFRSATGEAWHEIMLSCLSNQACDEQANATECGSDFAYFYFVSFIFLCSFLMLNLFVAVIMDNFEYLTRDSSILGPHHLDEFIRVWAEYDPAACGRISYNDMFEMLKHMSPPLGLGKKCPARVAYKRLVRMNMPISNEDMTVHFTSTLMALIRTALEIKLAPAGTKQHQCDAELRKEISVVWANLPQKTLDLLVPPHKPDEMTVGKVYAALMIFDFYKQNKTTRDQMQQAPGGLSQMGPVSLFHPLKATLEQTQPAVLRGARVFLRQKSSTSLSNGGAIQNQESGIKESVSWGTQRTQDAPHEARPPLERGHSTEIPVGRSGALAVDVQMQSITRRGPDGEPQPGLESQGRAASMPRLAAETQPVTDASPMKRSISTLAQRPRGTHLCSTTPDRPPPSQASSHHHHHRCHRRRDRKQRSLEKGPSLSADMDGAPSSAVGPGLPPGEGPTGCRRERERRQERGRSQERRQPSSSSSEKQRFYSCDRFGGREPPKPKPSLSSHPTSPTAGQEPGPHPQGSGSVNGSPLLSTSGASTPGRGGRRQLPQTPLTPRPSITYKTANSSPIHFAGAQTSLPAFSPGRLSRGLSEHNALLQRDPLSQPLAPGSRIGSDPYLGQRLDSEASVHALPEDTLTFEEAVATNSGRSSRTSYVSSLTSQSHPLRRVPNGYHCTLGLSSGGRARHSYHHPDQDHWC
T1 sequence (P54284 whole entry partner): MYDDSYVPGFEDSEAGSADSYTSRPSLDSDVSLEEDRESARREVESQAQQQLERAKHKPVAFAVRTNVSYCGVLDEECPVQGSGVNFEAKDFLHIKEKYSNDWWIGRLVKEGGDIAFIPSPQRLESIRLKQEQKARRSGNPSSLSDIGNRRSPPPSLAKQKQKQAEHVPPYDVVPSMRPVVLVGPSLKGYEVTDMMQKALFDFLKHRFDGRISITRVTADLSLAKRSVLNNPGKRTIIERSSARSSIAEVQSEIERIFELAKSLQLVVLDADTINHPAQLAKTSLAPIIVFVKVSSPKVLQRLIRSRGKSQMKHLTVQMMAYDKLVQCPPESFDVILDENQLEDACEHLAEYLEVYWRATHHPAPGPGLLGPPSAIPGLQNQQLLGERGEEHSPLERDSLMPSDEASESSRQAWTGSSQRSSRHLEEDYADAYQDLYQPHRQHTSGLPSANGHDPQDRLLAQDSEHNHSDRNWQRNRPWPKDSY
T1 sequence (P54289 25-956 partner limits assumed): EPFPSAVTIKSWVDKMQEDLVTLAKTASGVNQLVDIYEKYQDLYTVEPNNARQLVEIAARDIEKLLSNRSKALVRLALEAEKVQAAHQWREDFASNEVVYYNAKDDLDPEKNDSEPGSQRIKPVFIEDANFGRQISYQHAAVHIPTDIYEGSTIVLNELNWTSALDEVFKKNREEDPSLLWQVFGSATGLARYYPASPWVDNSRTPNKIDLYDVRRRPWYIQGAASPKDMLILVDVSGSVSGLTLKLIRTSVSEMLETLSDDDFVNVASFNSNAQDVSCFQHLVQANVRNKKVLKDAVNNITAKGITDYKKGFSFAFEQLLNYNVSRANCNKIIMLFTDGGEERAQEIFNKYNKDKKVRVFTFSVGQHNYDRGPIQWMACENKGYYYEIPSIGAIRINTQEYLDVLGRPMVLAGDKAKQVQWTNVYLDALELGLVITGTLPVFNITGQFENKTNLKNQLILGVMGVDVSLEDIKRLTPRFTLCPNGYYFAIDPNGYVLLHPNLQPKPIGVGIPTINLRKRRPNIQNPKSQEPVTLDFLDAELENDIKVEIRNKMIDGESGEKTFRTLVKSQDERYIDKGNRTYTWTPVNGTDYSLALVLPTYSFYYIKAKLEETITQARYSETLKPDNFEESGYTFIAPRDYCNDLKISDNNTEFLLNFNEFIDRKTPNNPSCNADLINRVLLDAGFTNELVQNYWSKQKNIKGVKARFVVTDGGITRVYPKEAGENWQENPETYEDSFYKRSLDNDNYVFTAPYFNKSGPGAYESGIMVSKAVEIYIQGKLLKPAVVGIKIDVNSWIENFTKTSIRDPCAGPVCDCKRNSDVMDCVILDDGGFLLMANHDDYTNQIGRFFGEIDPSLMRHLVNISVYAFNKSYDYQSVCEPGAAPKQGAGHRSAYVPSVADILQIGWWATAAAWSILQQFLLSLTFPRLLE
T1 sequence (P54289 957-1103 partner limits assumed): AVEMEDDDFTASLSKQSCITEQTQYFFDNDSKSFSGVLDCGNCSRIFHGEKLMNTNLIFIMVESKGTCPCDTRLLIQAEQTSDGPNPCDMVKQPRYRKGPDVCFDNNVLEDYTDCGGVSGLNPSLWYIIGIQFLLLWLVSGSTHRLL

As for `CC(=O)N1CCN(c2ncc(C(=O)N3CCCCC3)c(-c3ccc(C#N)cc3)n2)CC1` [compound 267], the pIC50 against CaV2.2 and against NaV1.3 was less than 5.00 each time.
With `O=C(c1cnc(NCc2ccccc2C(F)(F)F)nc1-c1ccccc1F)N1CCOCC1` [compound 252], the pIC50 against CaV2.2 and against NaV1.3 was less than 5.00 each time.
For the compound `CC1CCCCC1NC(=O)c1cnc(N2CCCC(C(N)=O)C2)nc1-c1ccc(C#N)cc1` (stereo not shown) [compound 286], the pIC50 against CaV2.2 and against NaV1.3 was less than 5.00 throughout.
For `COCCCNC(=O)c1cnc(N2CCOCC2)nc1-c1cccc(C)c1` [compound 307], the pIC50 against CaV2.2 and against NaV1.3 was less than 5.00 in each case.
`CC1CCN(C(=O)c2cnc(N3CCOCC3)nc2-c2ccccc2F)CC1` [compound 337]: the pIC50 against CaV2.2 and at NaV1.3 was less than 5.00 throughout.
As for `COc1ccc(CCN(C)c2ncc(C(=O)N3CCCC3)c(-c3ccc(C#N)cc3)n2)cc1OC` [compound 292], the negative-log IC50 (pIC50) at CaV2.2 and at NaV1.3 was less than 5.00 in each case.
`CCN(Cc1ccccc1)C(=O)c1cnc(NCc2ccc(C)o2)nc1-c1ccc(C#N)cc1` [compound 244]: the pIC50 against CaV2.2 and against NaV1.3 was less than 5.00 in each case.
Consider `CCN(Cc1ccccc1)C(=O)c1cnc(NCc2ccc3c(c2)OCO3)nc1-c1ccccc1F` [compound 222], for which the pIC50 at CaV2.2 and at NaV1.3 was less than 5.00 throughout.
`COCCCNC(=O)c1cnc(N2CCOCC2)nc1-c1ccc(C#N)cc1` [compound 349]: the pIC50 against CaV2.2 and against NaV1.3 was less than 5.00 each time.
`O=C(c1cnc(NCc2ccc3c(c2)OCO3)nc1-c1ccc(-c2ccccc2)cc1)N1CCCCC1` [compound 342]: the pIC50 against CaV2.2 and on NaV1.3 was less than 5.00 throughout.
Take `CCC(C)NC(=O)c1cnc(NCCc2ccc(Cl)cc2)nc1-c1ccccc1F` (stereo not shown) [compound 305]: the negative-log IC50 (pIC50) against CaV2.2 and against NaV1.3 was less than 5.00 throughout.
For the compound `COCCNc1ncc(C(=O)N2CC(C)CC(C)C2)c(-c2cccc(C)c2)n1` (stereo not shown) [compound 325], the pIC50 at CaV2.2 and on NaV1.3 was less than 5.00 throughout.
With `CC1CC(C)CN(C(=O)c2cnc(N3CCOCC3)nc2-c2ccccc2F)C1` (stereo not shown) [compound 279], the pIC50 on CaV2.2 and against NaV1.3 was less than 5.00 throughout.
For the compound `CC(=O)N1CCN(c2ncc(C(=O)N3CCOCC3)c(-c3cccc(C)c3)n2)CC1` [compound 226], the pIC50 against CaV2.2 and at NaV1.3 was less than 5.00 throughout.
`CC(=O)N1CCN(c2ncc(C(=O)N(C)CC(C)C)c(-c3ccc(-c4ccccc4)cc3)n2)CC1` [compound 225]: the negative logarithm of the IC50 (pIC50) was 5.00 to 5.70 at CaV2.2 and less than 5.00 on NaV1.3.
On the same counts, the results for `CCN(Cc1cccc(C)c1)C(=O)c1cnc(NCCCOC)nc1-c1ccccc1F` [compound 268] are less than 5.00 and less than 5.00.
On the same counts, the results for `CCN(C)c1ncc(C(=O)N2CCC(C)CC2)c(-c2cccc(C)c2)n1` [compound 343] are less than 5.00 and less than 5.00.
In the same order, the values of `CCN(Cc1ccccc1)C(=O)c1cnc(N2CCCCC2)nc1-c1ccccc1F` [compound 237] are 5.00 to 5.70 and less than 5.00.
As for `COCCNc1ncc(C(=O)N(C)C2CCCCC2)c(-c2ccc(C#N)cc2)n1` [compound 256], the pIC50 on CaV2.2 and against NaV1.3 was less than 5.00 in each case.
On to `CCC(C)NC(=O)c1cnc(NC2CC3CC(C2C)C3(C)C)nc1-c1ccc(C#N)cc1` (stereo not shown) [compound 228], for which the pIC50 at CaV2.2 and against NaV1.3 was less than 5.00 each time.
On to `CCN(Cc1cccc(C)c1)C(=O)c1cnc(N(C)CC)nc1-c1ccccc1F` [compound 246], for which the pIC50 against CaV2.2 is 5.00 to 5.70; against NaV1.3, less than 5.00.
On the same counts, the results for `CCN(Cc1ccccc1)C(=O)c1cnc(N2CCN(C(C)=O)CC2)nc1-c1ccccc1F` [compound 290] are less than 5.00 and less than 5.00.
With `CC(C)N(Cc1ccccc1)C(=O)c1cnc(N2CCOCC2)nc1-c1ccc(C#N)cc1` [compound 232], the values for the pIC50 on CaV2.2 and on NaV1.3 were 5.00 to 5.70 and less than 5.00, respectively.
